The values that follow come from PMC4721923 (PLoS ONE, 2015).

Where two headings read alike, the source gives them in different places.

For data set [1], the system named is SK-ES-1 cells (Ewing's sarcoma). Put plainly: Chemosensitivity assay (MTT-assay), SK-ES-1. In kind it is cell-based, human. To be noted: 96 hours of incubation, mean ± SEM. The procedure:
(§1) Depending on the characteristics of the cells, two different assays were performed. For adherently growing cells (HaCaT, HT-29, NCI-H460, SK-MEL-3, MG-63, Capan-1), cytotoxic and cytocidal effects were determined in the crystal violet assay, whereas for loosely adherent cells (LNCaP, SK-ES-1) and cells growing in suspension (HEL 92.1.7, Jurkat, U-937) the MTT-assay was used with minor modifications. In brief, 1.5 · 10^3 (HaCaT, HT-29, NCI-H460, SK-MEL-3, MG-63, Capan-1) or 5 · 10^3 (Jurkat, U-937, HEL92.1.7, LNCaP, SK-ES-1) cells per well were seeded into flat-bottom 96-well plates (Sarstedt, Nümbrecht, Germany). All compounds were used as solutions prepared in DMSO and tested at final concentrations (8 replicates per concentration) of 1, 3, 10, 30 and 50 μM. In case of the vehicle control and test compounds, the final DMSO concentration amounted to 0.1%. Absorbance was measured at 580 nm in a 96-well plate reader (GENios pro microplate reader, Tecan, Salzburg, Austria). Effects were quantified as previously described for both assays.

The test system of a further data set is NCI-H460 cells. Put plainly: Stability in the presence of cells (HPLC). To be noted: incubation period of 10 minutes. In kind it is in vitro ADME, human. The procedure:
The recently reported validated HPLC method was applied.
Samples were measured immediately before the incubation (t = 0 minutes) and after 10 minutes of incubation at 25°C (t = 10 minutes). […] (TIF) Click here for additional data file.

For data set [2], the system named is U-937 cells (histiocytic lymphoma). Put plainly: Chemosensitivity assay (MTT-assay), U-937. It counts as cell-based, human. To be noted: 96 hours of incubation, mean ± SEM. On the procedure:
as §1
In general terms: Tetrazolium dyes change colour on reduction, which living cells bring about.

The test system of data set [3] is NCI-H460 cells (large cell lung cancer). Put plainly: Chemosensitivity assay (crystal violet assay), NCI-H460. Particulars: 96 hours of incubation, mean ± SEM. It counts as cell-based, human. On the procedure: as §1
In the next data set the target is T1, OCT3 (Homo sapiens, UniProt O75751).
T1 construct: expressed in transfected cells; host or cells: HEK293 (HEK-OCT3)
T1 sequence (O75751 1-556): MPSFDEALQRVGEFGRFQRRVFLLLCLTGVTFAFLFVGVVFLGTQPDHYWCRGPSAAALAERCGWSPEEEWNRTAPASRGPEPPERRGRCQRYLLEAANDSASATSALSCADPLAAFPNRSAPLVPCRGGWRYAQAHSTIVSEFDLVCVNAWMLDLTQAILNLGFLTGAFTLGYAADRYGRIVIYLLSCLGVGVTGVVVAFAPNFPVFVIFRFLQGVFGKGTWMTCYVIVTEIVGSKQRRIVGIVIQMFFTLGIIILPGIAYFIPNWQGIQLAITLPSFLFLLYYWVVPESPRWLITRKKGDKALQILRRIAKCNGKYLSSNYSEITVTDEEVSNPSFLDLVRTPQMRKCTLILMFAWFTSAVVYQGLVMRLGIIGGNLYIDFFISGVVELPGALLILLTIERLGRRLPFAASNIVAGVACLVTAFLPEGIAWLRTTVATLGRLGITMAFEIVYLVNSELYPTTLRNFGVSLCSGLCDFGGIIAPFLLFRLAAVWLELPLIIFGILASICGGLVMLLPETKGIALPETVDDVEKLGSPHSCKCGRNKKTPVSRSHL
Put plainly: Flow cytometric ASP+-uptake inhibition, HEK-OCT3. In kind it is cell-based. Particulars: for potency relative to TPA at OCT3: from IC50 values, p ≤ 0.05. The procedure:
The previously described fluorescent substrate of organic cation transporters, 4-(4-dimethylaminostyryl)-N-methylpyridinium (ASP^+), was used to determine the function of OCT1 and OCT3 by flow cytometry in the absence and the presence of bendamustine and selected bendamustine esters. HEK293 cells expressing the transporter of interest were trypsinized and washed twice with PBS, prior to re-suspension of 0.5 · 10^6 cells in 500 μL of PBS containing 2% (v/v) FCS. The cells were incubated with ASP^+ (100 μM stock solution in PBS containing 10% DMSO) for 5 minutes, allowing for cellular accumulation, and subsequently analyzed with a FACSCalibur flow cytometer. ASP^+ was excited at 488 nm and the fluorescence was measured using a 530/30 nm and a 585/42 band-pass filter. At least 1 · 10^4 single cells were analyzed by appropriate FSC/SSC gating.
The cells were pre-incubated with the respective test compound at different concentrations at room temperature for 10 minutes. Afterwards, ASP^+ was added to a final concentration of 1 μM, and the samples were incubated at 37°C in the dark for 5 minutes. Subsequently, the cells were washed, re-suspended in ice-cold PBS/FCS and stored on ice in the dark until measurement.
The normalized mean fluorescence intensities of the OCT expressing cells, set to 100% in the absence of an inhibitor, were calculated by subtracting the mean fluorescence intensity of unspecific ASP^+ uptake into HEK-Co control cells. The normalized fluorescence intensities in the presence of an inhibitor were plotted against the logarithm of the concentrations of the test compounds to calculate IC50 values. The “log (inhibitor) vs. normalized response-variable slope” equation of GraphPad Prism 5.01 was used for this purpose.
(In general: In flow cytometry, cells or beads pass a laser one at a time.)

Data set [4] relates to MG-63 cells (osteosarcoma). Put plainly: Chemosensitivity assay (crystal violet assay), MG-63. It counts as cell-based, human. Particulars: for IC50: 96 hours of incubation, crystal violet assay, mean ± SEM. On the procedure: as §1

One may read the IC50 as the point on the concentration scale where inhibition reaches its midpoint. Consider `Cn1c(CCCC(=O)OCCN2CCCC2)nc2cc(N(CCCl)CCCl)ccc21` [Compound 5], for which the IC50 was 0.09 ± 0.01 µM in data set [1] (Homo sapiens, SK-ES1, 96 h); 0.83 ± 0.19 µM in data set [2] (Homo sapiens, U-937, 96 h); 0.9 ± 0.01 µM in data set [3] (Homo sapiens, read-out: IC50); 3.41 ± 0.16 µM against OCT3; 0.38 ± 0.06 µM in data set [4] (Homo sapiens, MG-63, 96 h). Further, in the data set on NCI-H460 cells, the “stability in the presence of cells” value was “Other decomposition products were not detected”. At OCT3, the “potency relative to TPA at OCT3” value is on record as “approximately four”.
On to `COC(=O)CCCc1nc2cc(N(CCCl)CCCl)ccc2n1C` [Compound 2], for which the IC50 in data set [1] was 0.18 ± 0.02 µM; in data set [1] (Homo sapiens, SK-ES1, 96 h), about 0.2 µM; in data set [2] (Homo sapiens, U-937, 96 h) it was 1.8 ± 0.1 µM; in data set [3] (Homo sapiens, read-out: IC50), 4.8 ± 0.3 µM; on OCT3, 5.1 ± 1.4 µM; in data set [4] (Homo sapiens, MG-63, 96 h) it was 1.9 ± 0.1 µM. In the data set with NCI-H460 cells, the “stability in the presence of cells” value is given as “Other decomposition products were not detected”. For the same compound, the “potency relative to TPA at OCT3” value at OCT3 is given as “approximately four”.
On to `Cn1c(CCCC(=O)OCCN2CCOCC2)nc2cc(N(CCCl)CCCl)ccc21` [Compound 4], for which the IC50 in data set [1] amounted to 0.91 ± 0.08 µM; in data set [1] (Homo sapiens, SK-ES1, 96 h), 0.9 µM; in data set [2] (Homo sapiens, U-937, 96 h), 3.2 ± 0.96 µM; in data set [3] (Homo sapiens, read-out: IC50) it was 9.7 ± 1.3 µM; against OCT3, 5.1 ± 0.02 µM; in data set [4] (Homo sapiens, MG-63, 96 h) it was 3.5 ± 0.1 µM. Moreover, the “stability in the presence of cells” value with NCI-H460 cells is listed as “Other decomposition products were not detected”. Further, the “potency relative to TPA at OCT3” value on OCT3 was “approximately four”.
As usually defined, the inhibition is the relative decrease from the control value, in per cent. For the compound `Cn1c(CCCC(=O)O)nc2cc(N(CCCl)CCCl)ccc21` [Compound 1, bendamustine, reference compound], the IC50 in data set [1] was 9.6 ± 0.3 µM; in data set [1] (Homo sapiens, SK-ES1, 96 h), about 10 µM; in data set [2] it was 83.4 ± 8.5 µM; in data set [2] (Homo sapiens, U-937, 96 h) it was over 80 µM; in data set [3] it was “only very weakly active”; in data set [3] (Homo sapiens, read-out: IC50), 90 ± 4.3 µM. Moreover, the IC50 was over 200 µM against OCT3; 55.8 ± 1.9 µM in data set [4]; about 56 µM in data set [4] (Homo sapiens, MG-63, 96 h). Also, in the data set on NCI-H460 cells, the “stability in the presence of cells” value is “Other decomposition products were not detected”. Moreover, at OCT3 (read-out: inhibition of OCT3), the inhibition at 200 µM stood at 37%. Besides, the “concentrations with cytocidal drug effects” value in data set [4] (kinetic assay, long-term exposure (S6 Fig)) is given as “above 30 μM”.
